Experimental data: patent publication US20110189094A1, “BIOLOGICAL METHOD FOR IN VIVO TRACKING OF MOLECULES AFFECTING CELLULAR MIGRATION” (UNIVERSIDAD DE CHILE, priority 2008, published 2011)

How the values were obtained:
lateral line primordium = assay: Lateral line primordium migration in CldnB::GFP transgenic zebra fish larvae (GFP fluorescence); type: in vivo, zebra fish (Danio rerio); conditions: 20 μM in medium, 22 hpf until 36 hpf
Experimental: (§1) Zebra fish (Danio rerio) are used, kept in a 14/10-hour light/darkness cycle. Embryos are recovered after natural fish mating and they grow in Petri plates at 28° C. in E3 medium (5 mM NaCl, 0.17 mM KCl, 0.33 mM CaCl2, 0.33 mM MgSO4, and 0.1% Methylene Blue) until the reach the development stadium suitable for the test, which is determined according to Kimmel et al., (1995). The larval stadiums are designated in post fertilization hours (hpf) or post fertilization days (dpf).
In this first example, in each cup on a plate with 24 cups with 2 ml of E3 medium each, we placed from 3-10 transgenic embryos that express the GFP gene under the control of the CldnB promoter (CldnB::GFP; kindly donated by Dr. Darren Gilmour (EMBL, Heidelberg, Germany). The agents subjected to tests (N˜(4˜hydroxyphenyl)retinamide (Fenretinide, 4-HPR), retinaldehide 9-cis, retinaldehide all-trans and only with the control vehicle: DMSO) were added to the medium at a final concentration of 20 μM when the embryos reached the 22 hpf stadium and the fish were kept in the medium plus the agent until 36 hpf. The GFP mark in the migratory primordium was observed every 4-6 hours in order to monitor its progress. At 36 hpf, we fixed one half of the fish (5 from each cup) with 4% paraformaldehyde dissolved in PBS. We observe the fluorescence of GFP (indicating the primordium position) and evaluated whether it migrated properly or not (FIG. 1).

CXCR4 [1] = assay: Expression of CXCR4 in dendritic cells in maturation; type: cell-based
Source text: (§2) Dendritic cells, when entering the maturation process, start to express chemokine receptors (CCR7, CXCR4) that direct their migration towards the secondary lymphoid organs. We have recently discovered that Fenritinide {4-HPR), a molecule utilized in “clinical trials” against breast cancer and neuroblastoma, inhibits the expression of CCR7 and CXCR4 in dendritic cells in maturation {Villablanca, Allende and collaborators; manuscript in preparation). […] In this way, Fenritinide would produce a blocking of the mature dendritic cells in the periphery, preventing their migration and arrival at the secondary lymphoid organs, affecting in this way the development of an immune response to pathogens or towards the tumoral cells proper.

dendritic cells = assay: Migration of dendritic cells; type: cell-based; conditions: negative control
Source text: as §2

neuromasts = assay: DiAsp tinction of mature neuromasts of the posterior lateral line in zebra fish embryos; type: in vivo, zebra fish (Danio rerio)
Experimental: as §1
(§3) In this way, we have evaluated our hypothesis of the Fenritinide effect on dendritic cells, taking our invention as the test model. Zebra fish embryos were incubated in accordance with the basic conditions described in Example 1, but in the presence of Fenritinide since the time when the posterior lateral line primordium starts to migrate (22 hours post fecundation (hpf) stadium), until the LLP system is mature (36 hpf stadium) and is easily visualized with the DiAsp tinction. […] We checked whether the absence of mature neuromasts is caused by migration blocking by means of in situ hybridization using the claudin-B (anti-claudinB antibody, detected with immunofluorescence) primordium marker.
(§4) Embryos in the 22 hpf stadium were incubated between 26 and 28° C., in the absence or presence of either PGD2 or 15-deoxy-PJE2, permitting the development of embryos up to the 36 hpf stadium, at which time we checked the primordium advance both in the treated embryos and in the (untreated) control embryos.

LLP primordium = LLP primordium advance in zebra fish embryos incubated with prostaglandins; type: in vivo, zebra fish (Danio rerio)
Experimental: as §1, §4

human dendritic cells = conditions: literature, Nencioni et al. 2002; cited from earlier work
CCR7 = assay: Expression of CCR7 in dendritic cells in maturation; type: cell-based
Source text: as §2

CD80 = assay: Expression of CD80 in dendritic cells; type: cell-based
Source text: as §2

CD83 = assay: Expression of CD83 in dendritic cells; type: cell-based
Source text: as §2

CD86 = assay: Expression of CD86 in dendritic cells; type: cell-based
Source text: as §2

[2] = test system: posterior lateral line primordium; assay: Primordium migration with claudin-B primordium marker in zebra fish embryos; type: in vivo, zebra fish (Danio rerio); conditions: Example 2, incubation 22 hpf until 36 hpf
Experimental: as §1, §3

CXCR4 [3] = conditions: literature, Scandelia et al. 2002; cited from earlier work
[4] = Example 3, 10 μM, 22 hpf up to 36 hpf

## CC1=C(/C=C/C(C)=C\C=C\C(C)=C\C=O)C(C)(C)CCC1 [9cRA, 9-cis retinaldehyde]
Lateral line primordium
  migration of the lateral line primordium (GFP fluorescence): normal migration

## retinaldehide all-trans [atRA]
Lateral line primordium
  migration of the lateral line primordium (GFP fluorescence): normal migration

## CC1=C(/C=C/C(C)=C/C=C/C(C)=C/C(=O)O)C(C)(C)CCC1 [retinoic acid]
CXCR4 [1]
  expression of CXCR4: not capable of inhibiting
Dendritic cells
  inhibition of the migration of dendritic cells: not capable of inhibiting

## CCCCC[C@H](O)/C=C/[C@H]1C(=O)C[C@H](O)[C@@H]1C/C=C\CCCC(=O)O [PGD2]
neuromasts; [4]
  DiAsp tinction of neuromasts: negative
LLP primordium; [4]
  LLP primordium migration: considerably slower
Human dendritic cells
  migration through CXCR4 in human dendritic cells: inhibit migration

## CC1=C(/C=C/C(C)=C/C=C/C(C)=C/C(=O)Nc2ccc(O)cc2)C(C)(C)CCC1 [4-HPR, N˜(4˜hydroxyphenyl)retinamide]
Lateral line primordium
  migration of the lateral line primordium (GFP fluorescence): delay in the migration
CCR7
  expression of CCR7: inhibits
CXCR4 [1]
  expression of CXCR4: inhibits
CD80
  inhibition of CD80: does not inhibit
CD83
  inhibition of CD83: does not inhibit
CD86
  inhibition of CD86: does not inhibit
neuromasts; Example 2, incubation 22 hpf until 36 hpf
  DiAsp tinction of mature neuromasts: negative
[2]
  primordium migration (claudin-B primordium marker): blocking of the migratory primordium at the beginning of its migration

## CCCCC[C@H](O)/C=C/[C@H]1[C@H](O)CC(=O)[C@@H]1C/C=C\CCCC(=O)O [PGE2]
neuromasts; Example 3, 22 hpf up to 36 hpf, 26-28° C., concentration not given
  DiAsp tinction of neuromasts: dyed with DiAsp
LLP primordium; Example 3, 22 hpf up to 36 hpf, concentration not given
  LLP primordium migration: migrated normally
CXCR4 [3]
  expression of CXCR4 in dendritic cells: increments
